Laboratory results from US12152038B2, “Vasopressin receptor antagonists and products and methods related thereto” (Neumora Therapeutics, Inc., priority 2017, dated 2024).

Experiment: Wild-type MDCK permeability and efflux assay (Papp, efflux ratio)
Assay type: in vitro ADME
Details: dog, pH 7.4, wild-type MDCK cells; for efflux ratio at 1 h, 10 μM: Papp B>A/Papp A>B, read-out: ER WT (Efflux Ratio)
Procedure, shortened: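 Bidirectional transport measured over 1 h at 37 °C with 10 μM test compound (0.1% DMSO) in pH 7.4 HEPES-buffered HBSS across MDR1-transfected and wild-type MDCK monolayers, analysed by LC-MS/MS. Efflux ratio is B>A over A>B Papp; effective efflux ratio divides MDR1-MDCK ER by wild-type ER.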

Papp A→B at 1 h, 10 μM [×10⁻⁶ cm/s] | efflux ratio at 1 h, 10 μM | SMILES
> 20 | 1 to 2 | CC1COc2cc(Cl)ccc2N1C(=O)N1CC2(C1)CN(c1cnccn1)C2 (single isomer, unassigned) [1-58-B]
> 20 | < 1 | COc1ccc2c(c1)OCC(C)N2C(=O)N1CC2(C1)CN(c1ccc(F)cn1)C2 (single isomer, unassigned) [1-59-B]
> 20 | < 1 | CC1COc2cc(Cl)ccc2N1C(=O)N1CC2(C1)CN(c1ccccn1)C2 (single isomer, unassigned) [1-60-B]
> 20 | 1 to 2 | CC1COc2cc(F)ccc2N1C(=O)N1CC2(C1)CN(c1cnccn1)C2 (single isomer, unassigned) [1-65-B]
> 20 | < 1 | CC1COc2cc(Cl)ccc2N1C(=O)N1CC2(C1)CN(c1ncc(F)cn1)C2 (single isomer, unassigned) [18-2-B]
> 20 | < 1 | Cc1cnc(N2CC3(CN(C(=O)N4c5ccc(Cl)cc5OCC4C)C3)C2)nc1 (single isomer, unassigned) [20-13-B]
> 20 | < 1 | CC1COc2cc(Cl)ccc2N1C(=O)N1CC2(C1)CN(c1nn(C)c3ncccc13)C2 (single isomer, unassigned) [20-15-B]
> 20 | < 1 | O=C(N1CC2(C1)CN(c1cnc(F)cn1)C2)N1CCOc2cc(Cl)ccc21 [1-18]
> 20 | < 1 | Cc1cncc(N2CC3(CN(C(=O)N4CCOc5cc(Cl)ccc54)C3)C2)n1 [1-22]
> 20 | < 1 | CC1COc2cc(Cl)ccc2N1C(=O)N1CC2(C1)CN(c1ccccn1)C2 (centres unmarked) [1-60]
> 20 | < 1 | O=C(N1CC2(C1)CN(c1ccc(F)cn1)C2)N1CCOc2cc(F)ccc21 [1-64]
> 20 | 1 to 2 | O=C(N1CC2(C1)CN(c1cc(F)ccn1)C2)N1CCOc2cc(Cl)ccc21 [1-70]
> 20 | < 1 | O=C(N1CC2(C1)CN(c1cccnn1)C2)N1CCOc2cc(Cl)ccc21 [1-71]
> 20 | < 1 | O=C(N1CC2(C1)CN(c1cccnc1)C2)N1CCOc2cc(Cl)ccc21 [1-72]
10 to 20 | < 1 | CC1COc2cc(Cl)ccc2N1C(=O)N1CC2(C1)CN(c1noc3ccccc13)C2 (centres unmarked) [21-1, (6-(benzo[d]isoxazol-3-yl)-2,6-diazaspiro[3.3]heptan-2-yl)(7-chloro-3-methyl-2,3-dihydro-4H-benzo[b][1,4]oxazin-4-yl)methanone]
> 20 | < 1 | CC1COc2cc(Cl)ccc2N1C(=O)N1CC2(C1)CN(c1ncccc1C#N)C2 (centres unmarked) [21-2]
> 20 | < 1 | Cc1cncc(N2CC3(CN(C(=O)N4c5ccc(Cl)cc5OCC4C)C3)C2)n1 (centres unmarked) [21-3]
> 20 | 1 to 2 | Cc1cnnc(N2CC3(CN(C(=O)N4c5ccc(Cl)cc5OCC4C)C3)C2)c1 (centres unmarked) [21-4]
> 20 | 1 to 2 | CC1COc2cc(Cl)ccc2N1C(=O)N1CC2(C1)CN(c1ncncc1F)C2 (centres unmarked) [21-5]
> 20 | < 1 | CC1COc2cc(Cl)ccc2N1C(=O)N1CC2(C1)CN(c1ccncn1)C2 (centres unmarked) [21-6]
> 20 | < 1 | Cc1nccc(N2CC3(CN(C(=O)N4c5ccc(Cl)cc5OCC4C)C3)C2)n1 (centres unmarked) [21-8]
10 to 20 | 1 to 2 | CC1COc2cc(Cl)ccc2N1C(=O)N1CC2(C1)CN(c1nccc(C(F)(F)F)n1)C2 (centres unmarked) [21-10]
